Experimental data published in US8809341B2, “2,4-pyrimidinediamine compounds and uses as anti-proliferative agents” (Rigel Pharmaceuticals, Inc., priority 2003, dated 2014).
Like-named read-outs stand apart in the source and are kept apart here.

Columns and labels:
Assay type in all cases: cell-based
PC3 = experiment: in vitro antiproliferation assay, PC3 (prostate)
Description: (§1) The IC50 values of various compounds against a various different tumor cell lines were determined using standard in vitro antiproliferation assays. The tumor cell lines tested were as follows: A549 (lung); H1299 (lung), ACHN (kidney/p53 wt), CAKI (renal cell carcinoma), NCI-H460 (lung); HCT116 (colon/p53w0; HELA (cervix/p53 wt), HUH7 (liver/p53 wt), HUVEC (primary endothelial), LNCAP (prostate), HT-29 (colon); MCF-7 (breast); MCF-7 (breast/ER positive), MDA MB435S (breast); MDA MB231 (breast/ER negative), DU145 (prostate); BxPC-3 (pancreatic); SKOV-3 (ovarian); HepG2 (hepatic), NDHF primary normal human dermal fibroblast), SKMEL28 (breast/p53mut), SKMEL5 (breast/p53 wt), U20S (bone) and PC3 (prostate). […] A blank indicates the specified compound was not tested against the specified cell line.
(§2) Many of the compounds were tested against other cell lines. Their activity is reported in TABLE 15, below, where +”, “−”, “−/+” or “+/−” values are as described for TABLES 1-14. Where the cell line includes a value in a parenthetical, the value indicates the seeding density at which the assay was performed

A549 cells = experiment: in vitro antiproliferation assay, A549 (lung)
Procedure, shortened: (§3)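 IC50 values came from standard antiproliferation testing in cultured tumour cells; the A549 and H1299 lines are of lung origin.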

H1299 cells = experiment: in vitro antiproliferation assay, H1299 (lung)
Procedure, shortened: as §3

HCT116 = experiment: in vitro antiproliferation assay, HCT116 (colon)
Description: as §1, §2

[1] = in vitro antiproliferation, A549 (lung) cells, Table 4, compounds with no designated stereochemistry tested as racemate
[2] = IC50 class against H1299 (lung) tumor cells
[3] = IC50 class against A549 (lung) tumor cells
[4] = HCT116 (colon), read-out: HCT116
[5] = Table 5, in vitro antiproliferation, H1299 (lung) cells
[6] = Table 5, in vitro antiproliferation, A549 (lung) cells
[7] = Table 7, in vitro antiproliferation, A549 (lung) cells
[8] = Table 7, in vitro antiproliferation, H1299 (lung) cells
[9] = Table 7, in vitro antiproliferation, colon cells, read-out: HTC116

IC50 (PC3) [µM]	IC50 (HCT116; [4]) [µM]	IC50 (A549 cells; [6]) [µM]	SMILES	further results
≤ 20	–	–	CNC(=O)COc1cccc(Nc2ncc(F)c(Nc3ccc4c(c3)NC(=O)C(C)O4)n2)c1 (racemic) [compound 256]	IC50 (A549 cells; [1]): ≤ 20 µM
–	> 20	–	COC(=O)N1CCN(c2ccc(Nc3ncc(F)c(NC4CC4)n3)cc2)CC1 [compound 104]	IC50 (H1299 cells; [2]): ≤ 20 µM; IC50 (A549 cells; [3]): ≤ 20 µM
–	≤ 20	–	O=C(COc1cccc(Nc2ncc(F)c(NC3CCC3)n2)c1)NC1CC1 [compound 110]	IC50 (H1299 cells; [2]): ≤ 20 µM; IC50 (A549 cells; [3]): ≤ 20 µM
–	≤ 20	–	Fc1cnc(Nc2ccc(Cl)c(Cl)c2)nc1NC1CCC1 [compound 111]	IC50 (H1299 cells; [2]): ≤ 20 µM; IC50 (A549 cells; [3]): ≤ 20 µM
–	≤ 20	–	COc1ccc(Nc2ncc(F)c(NC3CCC3)n2)cc1Cl [compound 112]	IC50 (H1299 cells; [2]): ≤ 20 µM; IC50 (A549 cells; [3]): ≤ 20 µM
≤ 20	–	–	O=C1COc2ccc(Nc3nc(Nc4cccc(O)c4)ncc3F)cc2N1 [compound 254]	IC50 (A549 cells; [1]): ≤ 20 µM
–	> 20	–	Cc1c(Cl)cc(Nc2ncc(F)c(Nc3ccc4c(c3)NC(=O)C(C)(C)O4)n2)cc1Cl [compound 306]	IC50 (H1299 cells; in vitro antiproliferation, H1299 (lung) cells, Table 4, compounds with no designated stereochemistry tested as racemate): ≤ 20 µM; IC50 (A549 cells; [1]): ≤ 20 µM
≤ 20	–	–	CNC(=O)COc1cccc(Nc2ncc(F)c(Nc3ccc4c(n3)NC(=O)CO4)n2)c1 [compound 418]	–
–	< 20	< 20	O=C(COc1cccc(Nc2ncc(F)c(Nc3ccc4c(c3)OCCO4)n2)c1)N1CCOCC1 [compound 493]	IC50 (H1299 cells; [5]): ≤ 20 µM
–	≤ 20	≤ 20	Fc1cnc(Nc2cccc(OCCN3CCOCC3)c2)nc1Nc1ccc2c(c1)OCCO2 [compound 494]	IC50 (H1299 cells; [5]): ≤ 20 µM
–	≤ 20	< 20	CNC(=O)COc1cccc(Nc2ncc(F)c(Nc3ccc4c(c3)OCCO4)n2)c1 [compound 495]	IC50 (H1299 cells; [5]): ≤ 20 µM
> 20	–	–	Fc1cnc(Nc2cccc(OCCN3CCOCC3)c2)nc1Nc1ccc2c(c1)OCCO2 [compound 500]	–
> 20	–	> 20	CNC(=O)COc1ccc(Nc2ncc(F)c(Nc3ccc4c(c3)OCCO4)n2)cc1 [compound 501]	–
> 20	–	> 20	Fc1cnc(Nc2ccc(OCCN3CCOCC3)cc2)nc1Nc1ccc2c(c1)OCCO2 [compound 502]	–
> 20	–	> 20	O=C(COc1cccc(Nc2ncc(F)c(Nc3ccc4c(c3)OCCO4)n2)c1)NC1CCCCC1 [compound 508]	–
> 20	–	> 20	CN(CCO)C(=O)COc1cccc(Nc2ncc(F)c(Nc3ccc4c(c3)OCCO4)n2)c1 [compound 509]	–
> 20	–	> 20	CN(C)CCOc1cccc(Nc2ncc(F)c(Nc3ccc4c(c3)OCCO4)n2)c1 [compound 510]	–
≤ 20	–	> 20	CC(C)c1ccc(Nc2ncc(F)c(Nc3ccc4c(c3)OCCO4)n2)cc1 [compound 511]	–
≤ 20	–	–	CNC(=O)COc1cccc(Nc2ncc(F)c(Nc3ccc4c(c3)OCCO4)n2)c1 [compound 516]	–
–	≤ 20	≤ 20	OCc1cc(CO)cc(Nc2ncc(F)c(Nc3ccc4c(c3)OCCO4)n2)c1 [compound 529]	IC50 (H1299 cells; [5]): ≤ 20 µM
> 20	–	> 20	COC(=O)COc1cccc(Nc2ncc(F)c(Nc3ccc4c(c3)OCCCO4)n2)c1 [compound 580]	–
≤ 20	–	–	CNC(=O)c1cc2cc(Nc3ncc(F)c(Nc4ccc(C(C)(C)C)cc4)n3)ccc2o1 [compound 642]	–
> 20	–	–	CN(C)C(=O)c1cc2cc(Nc3ncc(F)c(Nc4cccc(O)c4)n3)ccc2o1 [compound 643]	IC50 (A549 cells; [7]): > 20 µM
–	–	–	COc1cc(Nc2nc(Nc3cccc4cc(C(=O)N(C)CCO)[nH]c34)ncc2F)cc(OC)c1 [compound 659]	IC50 (H1299 cells; [8]): ≤ 20 µM; IC50 (A549 cells; [7]): ≤ 20 µM; IC50 (HCT116; [9]): ≤ 20 µM
–	–	–	COc1cc(Nc2nc(Nc3cccc4cc(C(=O)NC(C)(C)CO)[nH]c34)ncc2F)cc(OC)c1 [compound 660]	IC50 (H1299 cells; [8]): ≤ 20 µM; IC50 (A549 cells; [7]): ≤ 20 µM; IC50 (HCT116; [9]): ≤ 20 µM
–	–	–	CCOC(=O)c1cc2cccc(Nc3ncc(F)c(NCCO)n3)c2[nH]1 [compound 667]	IC50 (H1299 cells; [8]): > 20 µM; IC50 (A549 cells; [7]): > 20 µM; IC50 (HCT116; [9]): > 20 µM
≤ 20	–	–	COC(=O)c1cc2cc(Nc3ncc(F)c(Nc4ccc5c(c4)NC(=O)C(F)(F)O5)n3)ccc2o1 [compound 676]	IC50 (A549 cells; [7]): ≤ 20 µM
> 20	–	–	CNC(=O)COc1cccc(Nc2ncc(F)c(Nc3ccc(OC(F)(F)F)c(Cl)c3)n2)c1 [compound 699]	IC50 (A549 cells; A549 (lung) cells, in vitro antiproliferation): ≤ 20 µM
